# What was measured:
# [1] = Toxicity in BALB/c mouse xenografted with human NCI-H520 cells assessed as body weight loss at 50 to 100 mg/kg, po administered daily via gavage and measured every 3 days for 14 days; format: organism-based; conditions: in vivo, 336 h, dose 50-100 mg/kg, time 14 day
# NCI-H1975 = test: Antiproliferative activity against human NCI-H1975 cells assessed as reduction in cell viability at 0.4 uM by CCK8 assay; format: functional, cell-based; conditions: time 3-6 day
# [2] = AUC(0 to t) in male ICR mouse at 1 mg/kg, iv measured up to 24 hrs by LC-MS/MS analysis; format: ADME, organism-based; conditions: in vivo
# PC-9 = test: Antiproliferative activity against human PC-9 cells assessed as reduction in cell viability at 0.4 uM by CCK8 assay; format: functional, cell-based; conditions: time 3-6 day
# [3] = Tmax in male ICR mouse at 10 mg/kg, po measured up to 24 hrs by LC-MS/MS analysis; format: ADME, organism-based; conditions: in vivo
# NCI-H1299 = test: Antiproliferative activity against human NCI-H1299 cells assessed as reduction in cell viability at 0.4 uM by CCK8 assay; format: functional, cell-based; conditions: time 3-6 day
compound,measurement,setting,value
O=C1C(Cl)=C(NCCc2cccc(F)c2)C(=O)c2ncccc21,Activity,[1],Non-toxic
same,Activity,NCI-H1975,Time-dependent-effect
same,AUC(0-t) at 24 h,[2],9.75 ng·h/mL
same,Activity,PC-9,Time-dependent-effect
same,Tmax,[3],20 min
same,Activity,NCI-H1299,Time-dependent-effect

# Reference: ChEMBL document CHEMBL6109083, “Design, synthesis, and antitumor activity of NSDs inhibitors targeting lung squamous cell carcinoma” (Eur J Med Chem, 2025)
